Results from patent US12227494B2, “Polymorphisms of HM30181 mesylate” (ATHENEX R&D, LLC, priority 2020, dated 2025).
Entries after “also recorded” stand apart in the source; their conditions may differ.

Key:
[1] = XRPD of polymorphs after air-drying or vacuum-drying (solid form stability); type: physicochemical; details: for Crystallinity / XRPD pattern after vacuum-drying: vacuum dried overnight (80° C.); for Crystallinity / XRPD pattern after air-drying: air-dried (overnight)
Protocol: Large scale studies were performed with HM30181 mesylate Type A starting material on a 200 mg scale as described below. Solids were isolated by vacuum filtration. The wet cakes from filtration from DMA, DMF, and NMP slurries were washed with 1 mL to 2 mL methanol to remove solvents. […]
XRPD was performed using a Panalytical X'Pert3™ Powder XRPD and on a Si zero-background holder. The 2θ position was calibrated against a Panalytical™ 640 Si powder standard. Details of XRPD used in the experiments are listed below in Table 20.

[2] = 1H-NMR check for disproportionation or degradation; type: physicochemical; details: large scale polymorph samples, DMSO-d6
Text: At large scale, a slurry of HM30181 mesylate Type A starting material in methanol at ambient conditions generated a mixture of HM30181 mesylate Type B and HM30181 mesylate Type A after 9 days (see FIG. 32). After 14 days, the slurry in methanol generated a HM30181 mesylate Type N polymorph. […] A scaled-up slurry of HM30181 mesylate Type A starting material in DMA yielded HM30181 mesylate Type E after 6 days (see FIG. 35). […] A scaled-up slurry of HM30181 mesylate Type A starting material in DMF at 50° C. yielded HM30181 mesylate Type F rather than the expected HM30181 mesylate Type G after 9 days (see FIG. 36). […] This slurry was heated in an attempt to generate HM30181 mesylate Type G. A scaled-up slurry of HM30181 mesylate Type A starting material in DMF at 100° C. yielded HM30181 mesylate Type F after 2 days (see FIG. 37). A scaled-up slurry of HM30181 mesylate Type A starting material in DMF at 150° C. yielded a previously unobserved XRPD pattern after 5 days (see FIG. 37).
By 1H-NMR, HM30181 mesylate Type E contained DMA, HM30181 mesylate Type F contains DMF, and HM30181 mesylate Type N contains MeOH.
Proton NMR were obtained using a Varian 200M™ NMR in deuterated DMSO (DMSO-d6).

Structure (SMILES)	Crystallinity / XRPD pattern after vacuum-drying [1]	Disproportionation or degradation by 1H-NMR [2]	Crystallinity / XRPD pattern after air-drying [1]	Crystallinity / XRPD pattern after air-drying ([1]; listed as Type I)
COc1cc2c(cc1OC)CN(CCc1ccc(-n3nnc(-c4cc(OC)c(OC)cc4NC(=O)c4cc(=O)c5ccccc5o4)n3)cc1)CC2.CS(=O)(=O)O [HM30181 mesylate Type E, HM30181 mesylate]	no loss of crystallinity; also recorded: No change in crystalline pattern	no disproportionation or degradation was detected	–	–
COc1cc2c(cc1OC)CN(CCc1ccc(-n3nnc(-c4cc(OC)c(OC)cc4NC(=O)c4cc(=O)c5ccccc5o4)n3)cc1)CC2.CS(=O)(=O)O [HM30181 mesylate Type G, HM30181 mesylate]	–	–	No reduction in crystallinity	–
COc1cc2c(cc1OC)CN(CCc1ccc(-n3nnc(-c4cc(OC)c(OC)cc4NC(=O)c4cc(=O)c5ccccc5o4)n3)cc1)CC2.CS(=O)(=O)O [HM30181 mesylate Type D, HM30181 mesylate]	–	–	Some loss of crystallinity; also recorded: No change in crystalline pattern	–
COc1cc2c(cc1OC)CN(CCc1ccc(-n3nnc(-c4cc(OC)c(OC)cc4NC(=O)c4cc(=O)c5ccccc5o4)n3)cc1)CC2.CS(=O)(=O)O [HM30181 mesylate Type I, HM30181 mesylate]	–	–	yielded HM30181 mesylate Type J	Type J on air-drying
COc1cc2c(cc1OC)CN(CCc1ccc(-n3nnc(-c4cc(OC)c(OC)cc4NC(=O)c4cc(=O)c5ccccc5o4)n3)cc1)CC2.CS(=O)(=O)O [HM30181 mesylate Type N, HM30181 mesylate]	some loss of crystallinity	no disproportionation or degradation was detected	–	–
COc1cc2c(cc1OC)CN(CCc1ccc(-n3nnc(-c4cc(OC)c(OC)cc4NC(=O)c4cc(=O)c5ccccc5o4)n3)cc1)CC2.CS(=O)(=O)O [HM30181 mesylate Type F, HM30181 mesylate]	Some change of pattern; also recorded: significant reduction in crystallinity	no disproportionation or degradation was detected	–	–
COc1cc2c(cc1OC)CN(CCc1ccc(-n3nnc(-c4cc(OC)c(OC)cc4NC(=O)c4cc(=O)c5ccccc5o4)n3)cc1)CC2.CS(=O)(=O)O [HM30181 mesylate Type C, HM30181 mesylate]	no loss of crystallinity was detected; also recorded: No change in crystalline pattern	no disproportionation or degradation was detected	no significant change	–
